# Values joined by “and” are separate entries in the source; they are usually repeats but may differ in a detail not shown here. Equal values may be shown once. Read-outs that look alike come from different tables or passages of the source.
# Legend:
# [1] = in vitro; settings: monkey
# Description: The cells were incubated with test sample dilutions for 72 h and MTT was used as reagent for detection of cytotoxicity. Podophyllotoxin (SIGMA) was used as the standard reference drug.
# [2] = system: Chloroquine-sensitive (3D7) strain of P. falciparum; assay: Malaria SYBR Green I-based fluorescence (MSF) assay, 3D7 strain; type: cell-based; settings: Plasmodium falciparum
# Description: (§1) The stock (5 mg/mL or 10 mM) solutions of extracts were prepared in DMSO and required dilutions were made in culture medium.
# (§2) Two-fold serial dilutions of test samples were made in 96 well plates and incubated with 1.0% parasitized cell suspension containing 0.8% parasitaemia (Asynchronous culture with more than 80% ring stages). The plates were incubated at 37° C. in CO2 incubator in an atmosphere of 5% CO2 and air mixture. 72 hours later 100 μL of lysis buffer containing 2× concentration of SYBR Green-I (Invitrogen) was added to each well and incubated for one hour at 37° C. The plates were examined at 485±20 nm of excitation and 530±20 nm of emission for relative fluorescence units (RFUs) per well using the fluorescence plate reader (FLX800, BIOTEK). IC50 values were obtained by Logit regression analysis of dose response curves (Singh et al. 2011).
# [3] = system: P. falciparum W(2) clone; settings: J Nat Prod. 2004, 67(1), 88-90; read-out: IC(50) against P. falciparum W(2) clone; cited from earlier work
# [4] = system: chloroquine resistant P. yoelii (N-67); assay: In vivo evaluation in P. yoelii (N-67) Swiss mice model; settings: 100 mg/kg intraperitoneal, four doses day 0-3 once daily; one value per mouse
# Description: The molecules were tested at 100 mg/kg dose through intraperitoneal route. The mice received infective inoculum containing 1×10^5 parasites on day 0 and then received four doses of test compound on day 0-3 once daily. Five infected mice were used for each molecule and five infected mice were kept as untreated control. Arteether (5 mg/kg, ×4, intramuscular) was used as positive control. Thin blood smear from tail blood of each mouse was prepared on day 4. The blood smears were fixed in methanol, stained with Giemsa's stain and examined under the light microscope (100×oil immersion). At least 10-15 fields per smear were scanned to obtain percent parasitaemia in treated as well as untreated mice. If significant suppression in percent parasitaemia is observed on day 4, the monitoring continues up to day 28.
# [5] = system: Plasmodium falciparum D(6) clone; settings: J Nat Prod. 2004, 67(1), 88-90; read-out: IC(50) against Plasmodium falciparum D(6) clone; cited from earlier work
# [6] = system: Chloroquine-resistant (K1) strain of P. falciparum; assay: Malaria SYBR Green I-based fluorescence (MSF) assay, K1 strain; type: cell-based; settings: Plasmodium falciparum
# Description: as §1, §2
# [7] = system: multidrug resistant human nasopharyngeal carcinoma (KB); settings: when used with vincristine; Bioorg. Med. Chem. Lett. 2012, 22 (24), 7726-7729; cited from earlier work
# [8] = 3D7, range given for listed compounds, read-out: IC50 values against 3D7 culture
# [9] = P. falciparum 3D7, 72 hours incubation, read-out: IC50 against 3D7
# [10] = K1, range given for listed compounds, read-out: IC50 values against K1 culture
# [11] = P. falciparum K1, 72 hours incubation, read-out: IC50 against K1
SMILES,CC50 at 72 h [1] [nM],"IC50 [2, 8] [nM]","IC50 [2, 9] [nM]",IC50 [3] [nM],% parasitaemia on day 4 in 5 individual mice [4],melting point [°C],IC50 [5] [nM],"IC50 [6, 10] [nM]","IC50 [6, 11] [nM]","chemoreversal activity, fold more active than verapamil [7] [fold]"
"COc1ccc([C@@H](CNC(=O)/C=C/c2ccccc2)OC(=O)/C=C/c2ccccc2)cc1OC [Compound 1, (S)-2-cinnamamido-1-(3,4-dimethoxyphenyl)ethyl cinnamate]",80700,2000 to 7000,3900,3060,09.50% and 13.76% and 11.93% and 11.72% and 13.20%,132 to 135,2040,1500 to 4000,2560,
"COc1ccc([C@@H](CNC(=O)/C=C/c2cc(OC)c(OC)c(OC)c2)OC(=O)/C=C/c2cc(OC)c(OC)c(OC)c2)cc1OC [Compound 41, (S)-1-(3,4-dimethoxyphenyl)-2-((E)-3-(3,4,5-trimethoxyphenyl)acrylamido)ethyl (E)-3-(3,4,5-trimethoxyphenyl)acrylate]",88000,2000 to 7000,3160,,11.78% and 11.93% and 11.12% and 11.26% and 12.13%,138 to 140,,1500 to 4000,1780,
"COc1cc(/C=C/C(=O)NC[C@@H](OC(=O)/C=C/c2cc(OC)c(OC)c(OC)c2)c2cc(OC)c(OC)c(OC)c2)cc(OC)c1OC [Compound 58, (S)-1-(3,4,5-trimethoxyphenyl)-2-((E)-3-(3,4,5-trimethoxyphenyl)acrylamido)ethyl (E)-3-(3,4,5-trimethoxyphenyl)acrylate]",42700,2000 to 7000,1890,,10.10% and 10.16% and 13.50% and 07.50% and 11.92%,67 to 69,,1500 to 4000,1930,
COc1cc(C(=O)OCC(OC(=O)c2cc(OC)c(OC)c(OC)c2)c2cc(OC)c(OC)c(OC)c2)cc(OC)c1OC (stereo not shown) [bis-trimethoxybenzoyl derivative],,,,,,,,,,340
"COc1ccc([C@H](CNC(=O)/C=C/c2cc(OC)c(OC)c(OC)c2)OC(=O)/C=C/c2cc(OC)c(OC)c(OC)c2)cc1OC [Compound 42, (R)-1-(3,4-dimethoxyphenyl)-2-((E)-3-(3,4,5-trimethoxyphenyl)acrylamido)ethyl (E)-3-(3,4,5-trimethoxyphenyl)acrylate]",88900,2000 to 7000,2280,,14.07% and 12.50% and 15.10% and 12.16% and 11.46%,138 to 140,,1500 to 4000,2070,

# From patent US10519098B2, “Aromatic derivatives as anti-malarial” (Council of Scientific & Industrial Research, priority 2014, dated 2019)
